Data published in PubChem BioAssay AID1259407 (Chemical Carcinogenesis Research Information System (CCRIS), 2018).
Activity calls are given as the source filed them. How the calls were made is not given here.

Tested on: CCRIS mutagenicity, Ames/micronucleus/aberration tests
Experiment: CCRIS mutagenicity studies
Conditions: Test System: AMES SALMONELLA TYPHIMURIUM
[1] = Strain/Indicator: TA98, Metabolic Activation: NONE, Method: STANDARD PLATE

For `COc1c2occc2cc2ccc(=O)oc12`, the mutagenic call (Strain/Indicator: TA92, Metabolic Activation: NONE, Method: SPOT TEST) was “inactive; negative”, the mutagenic call (Strain/Indicator: TA92, Metabolic Activation: RAT, LIVER, S-9, AROCLOR 1254, Method: SPOT TEST) was “inactive; negative” and the mutagenic call (Strain/Indicator: TA94, Metabolic Activation: NONE, Method: SPOT TEST) was “inactive; negative”. For the same compound, the mutagenic call (Strain/Indicator: TA94, Metabolic Activation: RAT, LIVER, S-9, AROCLOR 1254, Method: SPOT TEST) was “inactive; negative”, the mutagenic call (Strain/Indicator: TA97, Metabolic Activation: NONE, Method: SPOT TEST) was “inactive; negative” and the mutagenic call (Strain/Indicator: TA97, Metabolic Activation: RAT, LIVER, S-9, AROCLOR 1254, Method: SPOT TEST) was “inactive; negative”. For the same compound, the mutagenic call (Strain/Indicator: TA98, Metabolic Activation: HAMSTER, LIVER, S-9 (30%), AROCLOR 1254, Method: PREINCUBATION) was “inactive; negative”, the mutagenic call (Strain/Indicator: TA98, Metabolic Activation: NONE, Method: PREINCUBATION) was “inactive; negative” and the mutagenic call (Strain/Indicator: TA98, Metabolic Activation: NONE, Method: SPOT TEST) was “inactive; negative”. The mutagenic call [1] was “inactive; negative”, the mutagenic call (Strain/Indicator: TA98, Metabolic Activation: RAT, LIVER, S-9, AROCLOR 1254, Method: SPOT TEST) was “inactive; negative” and the mutagenic call (Strain/Indicator: TA98, Metabolic Activation: RAT, LIVER, S-9, PHENOBARBITAL, Method: STANDARD PLATE) was “inactive; negative”. For the same compound, the mutagenic call (Strain/Indicator: TA100, Metabolic Activation: HAMSTER, LIVER, S-9 (5%, 10% OR 30%), AROCLOR 1254, Method: PREINCUBATION) was “active; positive”, the mutagenic call (Strain/Indicator: TA100, Metabolic Activation: NONE, Method: PREINCUBATION) was “inactive; negative” and the mutagenic call (Strain/Indicator: TA100, Metabolic Activation: NONE, Method: SPOT TEST) was “inactive; negative”. The mutagenic call (Strain/Indicator: TA100, Metabolic Activation: RAT, LIVER, S-9 (10%), AROCLOR 1254, Method: PREINCUBATION) was “inactive; negative”, the mutagenic call (Strain/Indicator: TA100, Metabolic Activation: RAT, LIVER, S-9, AROCLOR 1254, Method: SPOT TEST) was “inactive; negative” and the mutagenic call (Strain/Indicator: TA102, Metabolic Activation: HAMSTER, LIVER, S-9 (5%), AROCLOR 1254, Method: PREINCUBATION) was “active; positive”. For the same compound, the mutagenic call (Strain/Indicator: TA102, Metabolic Activation: NONE, Method: PREINCUBATION) was “inactive; negative”, the mutagenic call (Strain/Indicator: TA102, Metabolic Activation: NONE, Method: SPOT TEST) was “inactive; negative” and the mutagenic call (Strain/Indicator: TA102, Metabolic Activation: RAT, LIVER, S-9 (5%), AROCLOR 1254, Method: PREINCUBATION) was “active; positive”. For the same compound, the mutagenic call (Strain/Indicator: TA102, Metabolic Activation: RAT, LIVER, S-9, AROCLOR 1254, Method: SPOT TEST) was “inactive; negative”, the mutagenic call (Strain/Indicator: TA104, Metabolic Activation: HAMSTER, LIVER, S-9 (30%), AROCLOR 1254, Method: PREINCUBATION) was “active; positive” and the mutagenic call (Strain/Indicator: TA104, Metabolic Activation: RAT, LIVER, S-9 (5% OR 10%), AROCLOR 1254, Method: PREINCUBATION) was “active; positive”. The mutagenic call (Strain/Indicator: TA104, Metabolic Activation: RAT, LIVER, S-9(30%), AROCLOR 1254, Method: PREINCUBATION) was “active; positive”, the mutagenic call (Strain/Indicator: TA1535, Metabolic Activation: HAMSTER, LIVER, S-9 (30%), AROCLOR 1254, Method: PREINCUBATION) was “inactive; negative” and the mutagenic call (Strain/Indicator: TA1535, Metabolic Activation: NONE, Method: PREINCUBATION) was “inactive; negative”. The mutagenic call (Strain/Indicator: TA1535, Metabolic Activation: RAT, LIVER, S-9 (30%), AROCLOR 1254, Method: PREINCUBATION) was “inactive; negative”.

With `Cc1ccc(N=Nc2ccc(N(CCO)CCO)cc2)cc1` the mutagenic call (Strain/Indicator: TA98, Metabolic Activation: HAMSTER, LIVER, S-9, AROCLOR 1254, Method: STANDARD PLATE) was “inactive; negative”, the mutagenic call [1] was “inactive; negative” and the mutagenic call (Strain/Indicator: TA98, Metabolic Activation: RAT, LIVER, S-9, AROCLOR 1254, Method: PREINCUBATION) was “inactive; negative”. For the same compound, the mutagenic call (Strain/Indicator: TA98, Metabolic Activation: RAT, LIVER, S-9, AROCLOR 1254, Method: STANDARD PLATE) was “inactive; negative”, the mutagenic call (Strain/Indicator: TA100, Metabolic Activation: NONE, Method: STANDARD PLATE) was “inactive; negative” and the mutagenic call (Strain/Indicator: TA100, Metabolic Activation: RAT, LIVER, S-9, AROCLOR 1254, Method: STANDARD PLATE) was “inactive; negative”. For the same compound, the mutagenic call (Strain/Indicator: TA1535, Metabolic Activation: NONE, Method: STANDARD PLATE) was “inactive; negative”, the mutagenic call (Strain/Indicator: TA1535, Metabolic Activation: RAT, LIVER, S-9, AROCLOR 1254, Method: STANDARD PLATE) was “inactive; negative” and the mutagenic call (Strain/Indicator: TA1537, Metabolic Activation: NONE, Method: STANDARD PLATE) was “inactive; negative”. The mutagenic call (Strain/Indicator: TA1537, Metabolic Activation: RAT, LIVER, S-9, AROCLOR 1254, Method: STANDARD PLATE) was “inactive; negative”, the mutagenic call (Strain/Indicator: TA1538, Metabolic Activation: NONE, Method: STANDARD PLATE) was “inactive; negative” and the mutagenic call (Strain/Indicator: TA1538, Metabolic Activation: RAT, LIVER, S-9, AROCLOR 1254, Method: STANDARD PLATE) was “inactive; negative”.
